Test results taken from US20230085307A1, “PYRIDAZINONE COMPOUND AND HERBICIDE” (NISSAN CHEMICAL CORPORATION, priority 2019, published 2023).

What was measured:
[1] = test system: late watergrass; test: Test Example 1: herbicidal activity, application before weed generation under submerged conditions (Table 16, symbol A); assay type: in vivo, late watergrass (Echinochloa oryzicola); details: amount of applied herbicide 320 g/ha
Outline: (§1)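 Submerged Wagner pots (alluvial soil, 4 cm water) sown with weed seeds and planted with 2.5-leaf rice seedlings; emulsifiable concentrate diluted in water applied to water surface on sowing day. Held in greenhouse at 25-30 °C; injury scored 0-5 by herbicidal rate after three weeks.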

[2] = test system: Japanese bulrush; test: Test Example 1: herbicidal activity, application before weed generation under submerged conditions (Table 16, symbol B); assay type: in vivo, Japanese bulrush (Schoenoplectus juncoides); details: amount of applied herbicide 320 g/ha
Outline: as §1

[3] = test system: late watergrass; test: Test Example 2: herbicidal activity, application during weed generation under submerged conditions (Table 17, symbol A); assay type: in vivo, late watergrass (Echinochloa oryzicola); details: AAH 320 g/ha; application during weed generation, submerged conditions
Outline: (§2)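 Mixed weed seedlings in alluvial soil under a 4 cm water layer, greenhouse-grown at 25–30° C. Compound given as a diluted emulsion into the floodwater at the 1–2 leaf stage; response graded after three weeks.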

[4] = test system: oval-leafed pondweed; test: Test Example 2: herbicidal activity, application during weed generation under submerged conditions (Table 17, symbol C); assay type: in vivo, oval-leafed pondweed (Monochoria vaginalis); details: AAH 320 g/ha; application during weed generation, submerged conditions
Outline: as §2

[5] = test system: barnyard grass; test: Test Example 3: herbicidal effect by foliage application, Wagner pot (Table 18, symbol H); assay type: in vivo, barnyard grass (Echinochloa crus-galli); details: for Herbicidal effect on H (barnyard grass), foliage application: amount of applied herbicide 320 g/ha
Outline: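 Plants were sown in alluvial soil held under 0.1–0.5 cm standing water and grown 14 days in a greenhouse at 25–30 °C. An emulsifiable formulation, water-diluted to the set dose, was then sprayed onto the foliage, and effects were scored three weeks later using previously defined criteria.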

[6] = test system: barnyard grass; test: Test Example 4: herbicidal effect by soil treatment (Table 19, symbol H); assay type: in vivo, barnyard grass (Echinochloa crus-galli); details: amount of applied herbicide 320 g/ha
Outline: (§3)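 Soil-surface application: an emulsion agent diluted with water to the predetermined dose is sprayed uniformly over seeds lying under roughly 1.5 cm of sterilized diluvial soil. Boxes stay in a greenhouse at 25° C. to 30° C. Three weeks later, each species is graded on previously defined criteria.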

[7] = test system: Italian ryegrass; test: Test Example 4: herbicidal effect by soil treatment (Table 19, symbol K); assay type: in vivo, Italian ryegrass (Lolium multiflorum); details: amount of applied herbicide 320 g/ha
Outline: as §3

[8] = test system: windgrass; test: Test Example 4: herbicidal effect by soil treatment (Table 19, symbol L); assay type: in vivo, windgrass (Apera spica-venti); details: amount of applied herbicide 320 g/ha
Outline: as §3

[9] = test system: velvetleaf; test: Test Example 4: herbicidal effect by soil treatment (Table 19, symbol M); assay type: in vivo, velvetleaf (Abutilon theophrasti); details: amount of applied herbicide 320 g/ha
Outline: as §3

[10] = test system: lambsquarters; test: Test Example 4: herbicidal effect by soil treatment (Table 19, symbol O); assay type: in vivo, lambsquarters (Chenopodium album); details: amount of applied herbicide 320 g/ha
Outline: as §3

[11] = test system: chickweed; test: Test Example 4: herbicidal effect by soil treatment (Table 19, symbol P); assay type: in vivo, common chickweed (Stellaria media); details: amount of applied herbicide 320 g/ha
Outline: as §3

[12] = test system: persian speedwell; test: Test Example 4: herbicidal effect by soil treatment (Table 19, symbol R); assay type: in vivo, Persian speedwell (Veronica persica); details: amount of applied herbicide 320 g/ha
Outline: as §3

[13] = test system: green foxtail; test: Test Example 5: herbicidal effect by foliage application, plastic box (Table 20, symbol G); assay type: in vivo, green foxtail (Setaria viridis); details: foliage application, 320 g/ha, three weeks after application
Outline: (§4)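 Sow seeds spot-wise in sterilized diluvial soil; cover with ~1.5 cm soil. Grow 14 days in greenhouse, 25° C. to 30° C. Spray foliage with emulsion diluted to predetermined amount. Rate effect after 3 weeks.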

[14] = test system: windgrass; test: Test Example 5: herbicidal effect by foliage application, plastic box (Table 20, symbol L); assay type: in vivo, windgrass (Apera spica-venti); details: foliage application, 320 g/ha, three weeks after application
Outline: as §4

[15] = test system: persian speedwell; test: Test Example 5: herbicidal effect by foliage application, plastic box (Table 20, symbol R); assay type: in vivo, Persian speedwell (Veronica persica); details: foliage application, 320 g/ha, three weeks after application
Outline: as §4

In the case of `COc1ccc(-c2oc3ccc(F)cc3c2-c2c(O)c(C)nn(C)c2=O)cc1` [Compound No. 9-020, 4-(5-fluoro-2-(4-methoxyphenyl)benzofuran-3-yl)-5-hydroxy-2,6-dimethylpyridazin-3(2H)-one], the “Herbicidal effect, A: late watergrass” value [1] is reported as 5 (Herbicidal rate of 90% or more (almost completely withered)), the “Herbicidal effect, B: Japanese bulrush” value [2] is reported as 5 (Herbicidal rate of 90% or more (almost completely withered)) and the “herbicidal effect rating, A: late watergrass” value [3] is reported as 3 (Herbicidal rate of 40% or more and less than 70%). For the same compound, the “herbicidal effect rating, C: oval-leafed pondweed” value (shortened to “herbicidal effect rating, C”) [4] was 3 (Herbicidal rate of 40% or more and less than 70%), the “Herbicidal effect on H (barnyard grass), foliage application” value (shortened to “Herbicidal effect on H (barnyard grass)”) [5] was 5 (Herbicidal rate of 90% or more (almost completely withered)) and the “H: barnyard grass, herbicidal effect grade” value (“H: barnyard grass” for short) [6] was 4 (Herbicidal rate of 70% or more and less than 90%). For the same compound, the “K: Italian ryegrass, herbicidal effect grade” value (“K: Italian ryegrass” below) [7] was 5 (Herbicidal rate of 90% or more (almost completely withered)), the “L: windgrass, herbicidal effect grade” value [8] was 2 (Herbicidal rate of 20% or more and less than 40%) and the “M: velvetleaf, herbicidal effect grade” value [9] was 2 (Herbicidal rate of 20% or more and less than 40%). For the same compound, the “O: lambsquarters, herbicidal effect grade” value (“O: lambsquarters” for short) [10] was 0 (Herbicidal rate of 5% or less (almost no effect)), the “P: chickweed, herbicidal effect grade” value [11] was 4 (Herbicidal rate of 70% or more and less than 90%) and the “R: persian speedwell, herbicidal effect grade” value (shortened to “R: persian speedwell”) [12] was 5 (Herbicidal rate of 90% or more (almost completely withered)). For the same compound, the “herbicidal effect on green foxtail (G)” value [13] was 5 (Herbicidal rate of 90% or more (almost completely withered)), the “herbicidal effect on windgrass (L)” value [14] was 5 (Herbicidal rate of 90% or more (almost completely withered)) and the “herbicidal effect on persian speedwell (R)” value (“herbicidal effect … (R)” below) [15] was 5 (Herbicidal rate of 90% or more (almost completely withered)).

In the case of `CCOc1ccccc1-c1sc2cc(C)c(C)cc2c1-c1c(O)c(C)nn(C)c1=O` [5-094], the “Herbicidal effect, A: late watergrass” value [1] is reported as 4 (Herbicidal rate of 70% or more and less than 90%), the “Herbicidal effect, B: Japanese bulrush” value [2] is reported as 4 (Herbicidal rate of 70% or more and less than 90%) and the “herbicidal effect rating, A: late watergrass” value [3] is reported as 2 (Herbicidal rate of 20% or more and less than 40%). For the same compound, the “herbicidal effect rating, C” value [4] was 3 (Herbicidal rate of 40% or more and less than 70%), the “herbicidal effect on barnyard grass (H)” value ([5]; 320 g/ha) was 5 (Herbicidal rate of 90% or more (almost completely withered)) and the “H: barnyard grass” value [6] was 1 (Herbicidal rate of 5% or more and less than 20%). For the same compound, the “K: Italian ryegrass” value [7] was 3 (Herbicidal rate of 40% or more and less than 70%), the “L: windgrass, herbicidal effect grade” value [8] was 3 (Herbicidal rate of 40% or more and less than 70%) and the “M: velvetleaf, herbicidal effect grade” value [9] was 1 (Herbicidal rate of 5% or more and less than 20%). For the same compound, the “O: lambsquarters” value [10] was 3 (Herbicidal rate of 40% or more and less than 70%), the “P: chickweed, herbicidal effect grade” value [11] was 1 (Herbicidal rate of 5% or more and less than 20%) and the “R: persian speedwell” value [12] was 3 (Herbicidal rate of 40% or more and less than 70%). For the same compound, the “herbicidal effect on green foxtail (G)” value [13] was 5 (Herbicidal rate of 90% or more (almost completely withered)), the “herbicidal effect on windgrass (L)” value [14] was 4 (Herbicidal rate of 70% or more and less than 90%) and the “herbicidal effect … (R)” value [15] was 5 (Herbicidal rate of 90% or more (almost completely withered)).

With `Cc1nn(C)c(=O)c(-c2c(-c3ccc4c(c3)OCCO4)oc3ccccc23)c1O` [8-002] the “Herbicidal effect, A: late watergrass” value [1] was 4 (Herbicidal rate of 70% or more and less than 90%), the “Herbicidal effect, B: Japanese bulrush” value [2] was 5 (Herbicidal rate of 90% or more (almost completely withered)) and the “herbicidal effect rating, A: late watergrass” value [3] was 3 (Herbicidal rate of 40% or more and less than 70%). For the same compound, the “herbicidal effect rating, C” value [4] was 5 (Herbicidal rate of 90% or more (almost completely withered)), the “Herbicidal effect on H (barnyard grass)” value [5] was 4 (Herbicidal rate of 70% or more and less than 90%) and the “H: barnyard grass” value [6] was 3 (Herbicidal rate of 40% or more and less than 70%). For the same compound, the “K: Italian ryegrass” value [7] was 0 (Herbicidal rate of 5% or less (almost no effect)), the “L: windgrass, herbicidal effect grade” value [8] was 0 (Herbicidal rate of 5% or less (almost no effect)) and the “M: velvetleaf, herbicidal effect grade” value [9] was 0 (Herbicidal rate of 5% or less (almost no effect)). For the same compound, the “O: lambsquarters” value [10] was 0 (Herbicidal rate of 5% or less (almost no effect)), the “P: chickweed, herbicidal effect grade” value [11] was 5 (Herbicidal rate of 90% or more (almost completely withered)) and the “R: persian speedwell” value [12] was 5 (Herbicidal rate of 90% or more (almost completely withered)). For the same compound, the “herbicidal effect on green foxtail (G)” value [13] was 3 (Herbicidal rate of 40% or more and less than 70%), the “herbicidal effect on windgrass (L)” value [14] was 1 (Herbicidal rate of 5% or more and less than 20%) and the “herbicidal effect … (R)” value [15] was 5 (Herbicidal rate of 90% or more (almost completely withered)).

`CCCOc1ccc(-c2oc3ccccc3c2-c2c(O)c(C)nn(C)c2=O)cc1` [8-003] was tested, and the “Herbicidal effect, A: late watergrass” value [1] was 5 (Herbicidal rate of 90% or more (almost completely withered)), the “Herbicidal effect, B: Japanese bulrush” value [2] was 5 (Herbicidal rate of 90% or more (almost completely withered)) and the “herbicidal effect rating, A: late watergrass” value [3] was 4 (Herbicidal rate of 70% or more and less than 90%). The “herbicidal effect rating, C” value [4] was 3 (Herbicidal rate of 40% or more and less than 70%), the “Herbicidal effect on H (barnyard grass)” value [5] was 5 (Herbicidal rate of 90% or more (almost completely withered)) and the “H: barnyard grass” value [6] was 5 (Herbicidal rate of 90% or more (almost completely withered)). The “K: Italian ryegrass” value [7] was 4 (Herbicidal rate of 70% or more and less than 90%), the “L: windgrass, herbicidal effect grade” value [8] was 0 (Herbicidal rate of 5% or less (almost no effect)) and the “M: velvetleaf, herbicidal effect grade” value [9] was 1 (Herbicidal rate of 5% or more and less than 20%). The “O: lambsquarters” value [10] was 3 (Herbicidal rate of 40% or more and less than 70%), the “P: chickweed, herbicidal effect grade” value [11] was 1 (Herbicidal rate of 5% or more and less than 20%) and the “R: persian speedwell” value [12] was 4 (Herbicidal rate of 70% or more and less than 90%). The “herbicidal effect on green foxtail (G)” value [13] was 5 (Herbicidal rate of 90% or more (almost completely withered)), the “herbicidal effect on windgrass (L)” value [14] was 0 (Herbicidal rate of 5% or less (almost no effect)) and the “herbicidal effect … (R)” value [15] was 5 (Herbicidal rate of 90% or more (almost completely withered)).

With `CCCC(=O)Oc1c(C)nn(C)c(=O)c1-c1c(-c2ccc3c(c2)OCCO3)oc2ccc(C)cc12` [9-013] the “Herbicidal effect, A: late watergrass” value [1] was 3 (Herbicidal rate of 40% or more and less than 70%), the “Herbicidal effect, B: Japanese bulrush” value [2] was 4 (Herbicidal rate of 70% or more and less than 90%) and the “herbicidal effect rating, A: late watergrass” value [3] was 0 (Herbicidal rate of 5% or less (almost no effect)). For the same compound, the “herbicidal effect rating, C” value [4] was 5 (Herbicidal rate of 90% or more (almost completely withered)), the “Herbicidal effect on H (barnyard grass)” value [5] was 1 (Herbicidal rate of 5% or more and less than 20%) and the “H: barnyard grass” value [6] was 1 (Herbicidal rate of 5% or more and less than 20%). For the same compound, the “K: Italian ryegrass” value [7] was 0 (Herbicidal rate of 5% or less (almost no effect)), the “L: windgrass, herbicidal effect grade” value [8] was 0 (Herbicidal rate of 5% or less (almost no effect)) and the “M: velvetleaf, herbicidal effect grade” value [9] was 2 (Herbicidal rate of 20% or more and less than 40%). The “O: lambsquarters” value [10] was 0 (Herbicidal rate of 5% or less (almost no effect)), the “P: chickweed, herbicidal effect grade” value [11] was 0 (Herbicidal rate of 5% or less (almost no effect)) and the “R: persian speedwell” value [12] was 0 (Herbicidal rate of 5% or less (almost no effect)). The “herbicidal effect on green foxtail (G)” value [13] was 0 (Herbicidal rate of 5% or less (almost no effect)), the “herbicidal effect on windgrass (L)” value [14] was 0 (Herbicidal rate of 5% or less (almost no effect)) and the “herbicidal effect … (R)” value [15] was 5 (Herbicidal rate of 90% or more (almost completely withered)).
